In brackets after ≈: the same amount, converted by molar mass.
Tests used:
[1] = tested on: Staphylococcus aureus FDA 209P JC-1; experiment: minimal inhibitory concentration, in vitro antibacterial activity; assay type: cell-based; conditions: FDA209P, 37° C., 20 hours
Method: (§1) The in vitro antibacterial activities of typical examples of the present compounds [I] were evaluated in terms of the minimal inhibitory concentration defined as the lowest concentration of the compound preventing the bacterial growth. The Gram-positive bacteria used as test microorganisms included Bacillus subtilis, Staphylococcus aureus and Streptococcus faecalis, and the Gram-negative bacteria used as test microorganisms included Escherichia coli, Enterobacter cloacae, Klebsiella pneumoniae, Proteus vulgaris, Pseudomonas aeruginosa, Serratia marcescens and Salmonella enteritidis. The minimal inhibitory concentration (cultured at 37° C. for 20 hours) was determined according to the standard method prescribed by the Japan Society of Chemotherapy (CHEMOTHERAPY, Vol. 29, No. 1, p. 76, 1981). The following compounds were used as typical examples of the present compounds [I]. At the end of the chemical name of each compound, its tentative designation is given in Parentheses.
(§2) For purposes of comparison, the in vitro antibacterial activities of ofloxacin, OPC-7241 and compound α were evaluated according to the same method as described above and the test results thus obtained are also shown in Table 1.

[2] = tested on: Escherichia coli NIHJ JC-2; experiment: as above; assay type: cell-based; conditions: NIHJJC2, 37° C., 20 hours
Method: as §1, §2

[3] = tested on: Bacillus subtilis ATCC 6633; experiment: as above; assay type: cell-based; conditions: ATCC6633, 37° C., 20 hours
Method: as §1, §2

[4] = tested on: Enterobacter cloacae 963; experiment: as above; assay type: cell-based; conditions: 37° C., 20 hours
Method: as §1, §2

[5] = tested on: Klebsiella pneumoniae PCI 602; experiment: as above; assay type: cell-based; conditions: PCI602, 37° C., 20 hours
Method: as §1, §2

[6] = tested on: Proteus vulgaris ATCC 13315; experiment: as above; assay type: cell-based; conditions: ATCC13315, 37° C., 20 hours
Method: as §1, §2

[7] = tested on: Pseudomonas aeruginosa NCTC 10490; experiment: as above; assay type: cell-based; conditions: NCTC10490, 37° C., 20 hours
Method: as §1, §2

[8] = tested on: Escherichia coli CI-304; experiment: as above; assay type: cell-based; conditions: CI304, 37° C., 20 hours
Method: as §1, §2

[9] = tested on: Serratia marcescens IAM 1184; experiment: as above; assay type: cell-based; conditions: IAM1184, 37° C., 20 hours
Method: as §1, §2

[10] = tested on: Salmonella enteritidis G14; experiment: as above; assay type: cell-based; conditions: Salmonella enterica, 37° C., 20 hours
Method: as §1, §2

[11] = tested on: Streptococcus faecalis AHU 1085; experiment: as above; assay type: cell-based; conditions: Enterococcus faecalis, AHU1085, 37° C., 20 hours
Method: as §1, §2

[12] = enteral absorbability, serum concentration after oral administration to mice; assay type: in vivo; conditions: mouse, 50 mg/kg orally, fasted male ICR mice; for concentration at 0.5 h: 30 min.
Method: Using male ICR mice fasted overnight (weighing 20±1 g), the enteral absorbability of some typical examples of the present compounds [I] was tested. This test was carried out by administering 50 mg/kg of each test compound orally to mice and determining its serum concentration 30 minutes, 1 hour, 2 hours and 4 hours after administration. Five mice were used for each test point. At each test point, whole blood was collected from the mice by cardiac puncture and used to prepare serum samples. Concentrations of the test compounds in serum samples were determined by the paper disc method using Escherichia coli CI-304 as the test microorganism.
For purposes of comparison, the enteral absorbability of ofloxacin and OPC-7241 was tested in the same manner as described above and the results thus obtained are also shown in Table 2.

| SMILES | MIC [1] [µg/mL] | MIC [2] [µg/mL] | MIC [3] [µg/mL] | MIC [4] [µg/mL] | MIC [5] [µg/mL] | MIC [6] [µg/mL] | MIC [7] [µg/mL] | MIC [8] [µg/mL] | MIC [9] [µg/mL] | MIC [10] [µg/mL] | MIC [11] [µg/mL] | concentration at 0.5 h [12] [ng/mL] | concentration at 1 h [12] [ng/mL] | concentration at 2 h [12] [ng/mL] | concentration at 4 h [12] [ng/mL] |
| --- | --- | --- | --- | --- | --- | --- | --- | --- | --- | --- | --- | --- | --- | --- | --- |
| CC1CC(=O)c2c(N3CCNCC3)c(Cl)cc3c(=O)c(C(=O)O)cn1c23 (stereo not shown) [Compound 2, 9-Chloro-5-methyl-8-(1-piperazinyl)-6,7-dihydro-1,7-dioxo-1H,5H-benzo[ij]quinolizine-2-carboxylic acid] | 0.39 (≈ 1.04 µM) | 0.39 (≈ 1.04 µM) | 0.39 (≈ 1.04 µM) | 0.78 (≈ 2.08 µM) | 0.1 (≈ 0.266 µM) | 0.1 (≈ 0.266 µM) | 0.78 (≈ 2.08 µM) | 0.2 (≈ 0.532 µM) |  |  |  |  |  |  |  |
| CC1C=Cc2c(N3CCNCC3)c(Cl)cc3c(=O)c(C(=O)O)cn1c23 (stereo not shown) [Compound 22, 9-Chloro-5-methyl-8-(1-piperazinyl) -1-oxo-1H, 5H-benzo[ij]quinolizine-2-carboxylic acid] | 0.2 (≈ 0.556 µM) | 0.2 (≈ 0.556 µM) | 0.1 (≈ 0.278 µM) | 0.2 (≈ 0.556 µM) | 0.1 (≈ 0.278 µM) | 0.1 (≈ 0.278 µM) | 0.78 (≈ 2.17 µM) | 0.1 (≈ 0.278 µM) | 0.78 (≈ 2.17 µM) | 0.78 (≈ 2.17 µM) | 0.78 (≈ 2.17 µM) |  |  |  |  |
| CC1CN(c2c(F)cc3c(=O)c(C(=O)O)cn4c3c2C=CC4C)CC(C)N1C (stereo not shown) [Compound 27, 9-Fluoro-5-methyl-8-(3,4,5-trimethyl-1-piperazinyl) -1-oxo-1H, 5H-benzo[ij]quinolizine-2-carboxylic acid] | 0.78 (≈ 2.02 µM) |  |  | 0.39 (≈ 1.01 µM) | 0.2 (≈ 0.519 µM) | 0.1 (≈ 0.259 µM) |  | 0.2 (≈ 0.519 µM) | 1.56 (≈ 4.05 µM) | 0.78 (≈ 2.02 µM) |  |  |  |  |  |
| CC1CN(c2c(F)cc3c(=O)c(C(=O)O)cn4c3c2C=CC4C)CCN1C (stereo not shown) [Compound 25, 9-Fluoro-5-methyl-8-(3,4-dimethyl-1-piperazinyl) -1-oxo-1H, 5H-benzo[ij]quinolizine-2-carboxylic acid] | 0.2 (≈ 0.538 µM) | 0.39 (≈ 1.05 µM) | 0.2 (≈ 0.538 µM) | 0.2 (≈ 0.538 µM) | 0.1 (≈ 0.269 µM) | 0.1 (≈ 0.269 µM) | 1.56 (≈ 4.2 µM) | 0.2 (≈ 0.538 µM) | 1.56 (≈ 4.2 µM) | 1.56 (≈ 4.2 µM) |  | 15500 | 14900 | 9300 | 5400 |
| CCC1CC(=O)c2c(N3CCN(C)CC3)c(F)cc3c(=O)c(C(=O)O)cn1c23 (stereo not shown) [Compound 6, 9-Fluoro-5-ethyl-8-(4-methyl-1-piperazinyl) -6,7-dihydro-1,7-dioxo-1H, 5H-benzo[ij]quinolizine-2-carboxylic acid] |  | 0.78 (≈ 2.01 µM) | 0.39 (≈ 1.01 µM) | 0.78 (≈ 2.01 µM) | 0.2 (≈ 0.516 µM) |  |  | 0.39 (≈ 1.01 µM) |  |  |  |  |  |  |  |
| CC1CC(=O)c2c(N3CCNCC3)c(F)cc3c(=O)c(C(=O)O)cn1c23 (stereo not shown) [Compound 1, 9-Fluoro-5-methyl-8-(1-piperazinyl)-6,7-dihydro-1,7-dioxo-1H,5H-benzo[ij]quinolizine-2-carboxylic acid] | 0.2 (≈ 0.557 µM) | 0.39 (≈ 1.09 µM) | 0.39 (≈ 1.09 µM) | 0.78 (≈ 2.17 µM) | 0.1 (≈ 0.278 µM) | 0.2 (≈ 0.557 µM) | 1.56 (≈ 4.34 µM) | 0.1 (≈ 0.278 µM) | 3.13 (≈ 8.71 µM) | 0.39 (≈ 1.09 µM) | 1.56 (≈ 4.34 µM) |  |  |  |  |
| CC1CC(=O)c2c(N3CCNC(C)(C)C3)c(F)cc3c(=O)c(C(=O)O)cn1c23 (stereo not shown) [Compound 15, 9-Fluoro-5-methyl-8-(3,3-dimethyl-1-piperazinyl) -6,7-dihydro-1,7-dioxo-1H, 5H-benzo[ij]quinolizine-2-carboxylic acid] | 0.39 (≈ 1.01 µM) | 0.39 (≈ 1.01 µM) | 0.39 (≈ 1.01 µM) | 0.39 (≈ 1.01 µM) | 0.1 (≈ 0.258 µM) |  | 3.13 (≈ 8.08 µM) | 0.1 (≈ 0.258 µM) |  | 0.78 (≈ 2.01 µM) | 3.13 (≈ 8.08 µM) | 15000 | 11700 | 6700 | 4300 |
| CC1C=Cc2c(N3CCNCC3)c(F)cc3c(=O)c(C(=O)O)cn1c23 (stereo not shown) [Compound 20, 9-Fluoro-5-methyl-8-(1-piperazinyl) -1-oxo-1H, 5H-benzo[ij]quinolizine-2-carboxylic acid] | 0.78 (≈ 2.27 µM) | 0.39 (≈ 1.14 µM) |  | 0.78 (≈ 2.27 µM) | 0.2 (≈ 0.582 µM) | 0.2 (≈ 0.582 µM) | 3.13 (≈ 9.12 µM) | 0.2 (≈ 0.582 µM) | 3.13 (≈ 9.12 µM) | 0.78 (≈ 2.27 µM) |  |  |  |  |  |
| CCC1C=Cc2c(N3CCNC(C)C3)c(F)cc3c(=O)c(C(=O)O)cn1c23 (stereo not shown) [Compound 32, 9-Fluoro-5-ethyl-8-(3-methyl-1-piperazinyl) -1-oxo-1H, 5H-benzo[ij]quinolizine-2-carboxylic acid] |  | 0.39 (≈ 1.05 µM) |  | 0.78 (≈ 2.1 µM) | 0.2 (≈ 0.538 µM) |  |  | 0.2 (≈ 0.538 µM) |  |  |  |  |  |  |  |
| CC1C=Cc2c(N3CCNC(C)(C)C3)c(F)cc3c(=O)c(C(=O)O)cn1c23 (stereo not shown) [Compound 26, 9-Fluoro-5-methyl-8-(3,3-dimethyl-1-piperazinyl) -1-oxo-1H, 5H-benzo[ij]quinolizine-2-carboxylic acid] |  | 0.39 (≈ 1.05 µM) |  | 0.39 (≈ 1.05 µM) | 0.2 (≈ 0.538 µM) | 0.1 (≈ 0.269 µM) | 1.56 (≈ 4.2 µM) | 0.2 (≈ 0.538 µM) |  | 1.56 (≈ 4.2 µM) |  |  |  |  |  |
| CC1CC(=O)c2c(N3CCN(CCO)CC3)c(F)cc3c(=O)c(C(=O)O)cn1c23 (stereo not shown) [Compound 12, 9-Fluoro-5-methyl-8-[4-(2-hydroxyethyl) -1-piperazinyl]-6,7-dihydro-1,7-dioxo-1H, 5H-benzo[ij]quinolizine-2-carboxylic acid] |  |  |  |  | 0.1 (≈ 0.248 µM) |  |  | 0.39 (≈ 0.967 µM) |  |  |  |  |  |  |  |
| CCCN1CCN(c2c(F)cc3c(=O)c(C(=O)O)cn4c3c2C(=O)CC4C)CC1 (stereo not shown) [Compound 8, 9-Fluoro-5-methyl-8-(4-n-propyl-1-piperazinyl)-6,7-dihydro-1,7-dioxo-1H, 5H-benzo[ij]quinolizine-2-carboxylic acid] | 0.78 (≈ 1.94 µM) | 0.39 (≈ 0.972 µM) | 0.39 (≈ 0.972 µM) | 0.78 (≈ 1.94 µM) | 0.1 (≈ 0.249 µM) |  | 1.56 (≈ 3.89 µM) | 0.2 (≈ 0.498 µM) |  |  | 3.13 (≈ 7.8 µM) |  |  |  |  |
| CC1CN(c2c(Cl)cc3c(=O)c(C(=O)O)cn4c3c2C(=O)CC4C)CC(C)N1C (stereo not shown) [Compound 18, 9-Chloro-5-methyl-8-(3,4,5-trimethyl-1-piperazinyl) -6,7-dihydro-1,7-dioxo-1H, 5H-benzo[ij]quinolizine-2-carboxylic acid] |  | 0.78 (≈ 1.87 µM) |  | 0.78 (≈ 1.87 µM) | 0.1 (≈ 0.239 µM) |  |  | 0.2 (≈ 0.479 µM) |  |  |  |  |  |  |  |

From US4720495A, “Benzo[ij]quinolizine-2-carboxylic acids useful for treating bacterial infection” (priority 1985, dated 1988)
